Test results taken from patent US20250163057A1, “DCN-1 MODULATING COMPOUNDS AND METHODS OF USE THEREOF” (Cellarity, Inc., priority 2023, published 2025).

Assays:
Assay type in all cases: in vivo, NBSGW mice reconstituted with human CD34+ cells
[1] = system: fetal hemoglobin protein (HbF) in human erythroid progenitor cells; assay: Humanized mouse model: HbF protein in bone marrow by AlphaLISA; details: for HbF protein levels (AlphaLISA) normalized for % GlyA+ cells: FIG. 10B, most treatment groups
From the text: (§1) Results: To evaluate induction of target cell activity in the bone marrow, a humanized mouse model was developed. This model entails the reconstitution of human hematopoietic progenitor cells within the bone marrow of immunodeficient nonirradiated NOD.Cg-KitW-41J Tyr^+ Prkdc^scid Il2rg^tmlwjl/ThomJ (NBSGW) strain recipient mice. These mice are competent to engraft and differentiate human erythroid progenitor cells that express human adult hemoglobin mRNA and protein subunits within bone marrow.
(§2) Based on these exposure results, humanized mice were treated with either the clinical standard of care compound, hydroxyurea (50 mg/kg; bid), or I-73, at 25 and 100 mg/kg (bid), by oral gavage over a three-week period. At the end of the treatment period, bone marrow was harvested for flow cytometry, as well as for assessment of HbF protein and fetal hemoglobin (HBG1) mRNA levels. Levels of both HbF protein and HBG1 mRNA were normalized to the percentage of human erythroid progenitor cells in the bone marrow of each mouse as determined by immunofluorescence staining for human Glycophorin A cell membrane expression. […] In addition, relative levels of fetal hemoglobin to those of potentially sickling-prone adult hemoglobin (HBB) was assessed.
(§3) Female, 6-week-old NOD.Cg-Kit^W-41J Tyr^+ Prkdc^scid Il2rg^tm1Wjl/ThomJ (NBSGW) mice (Jackson Laboratory strain #[…]) were used for these studies. The mice were acclimatized to laboratory conditions for 5 days prior to inoculation.
(§4) GCSF-mobilized human CD34+ cells were removed from liquid nitrogen storage, thawed in a 37° C. water bath and transferred quickly into a 50 mL conical tube. Cryovial was rinsed once with thaw buffer, 0.1% BSA in phosphate buffered saline (PBS), and buffer was transferred and combined with the original contents in the 50 mL conical tube. Next, doubling volumes of thaw buffer was added to the conical and gently swirled for ˜30 seconds to one minute until the volume in the conical was 32 mL. Cells and buffer were centrifuged at 300G for 8 minutes, and the supernatants were aspirated. Cells were counted by resuspending in 1 mL of thawing buffer per million of cells to a target concentration range of 0.5 to 2M/ml and counting with AOPI (1:1) on a luna cell counter to confirm the concentration of cells/mL. The cell concentration was adjusted to 3×10^6 cells/ml. For each mouse, 300 thousand cells in 0.1 ml were injected into the tail vein with a 25-gauge needle.
(§5) On day 56 after human cell adoptive transfer, whole blood was collected from each mouse by submandibular bleed and a 100 μL sample of EDTA whole blood was transferred to a 2 ml tube containing 1.8 mL ACK Lysing Buffer at room temperature (RT), and then inverted to mix. Samples were incubated at RT for 15 min in the dark to lyse. After lysis, samples are centrifuged at 500×g for 5 minutes at RT to enable supernatant decanting. Remaining cells were washed with 1 mL of PBS-0.5% BSA and centrifuged at 500×g for 5 minutes at 4° C. Supernatant was decanted and cells were stained with leukocyte markers (human and mouse CD45 antibodies; BD347464, BD557659) to confirm human cell engraftment. Mice having less than one percent, or greater than ten percent, human CD45 positive cells were excluded from the subsequent study. Remaining mice were then randomized into treatment groups based on percentage of human cell engraftment. Each treatment group included 10-11 mice.
(§6) Compound I-73 was dissolved in a 5% Cremophor RH40, 20% hydroxylpropyl-β-cyclodextrin solution. Hydroxyurea was solubilized in PBS. Formulations were prepared fresh daily. Commencing on day 84 post human cell engraftment, mice were treated by oral gavage with either I-73, hydroxyurea or their respective vehicles, for a period of three weeks using either once daily (QD) or twice daily (BID) dosing regimens. Mice were monitored daily for body weight and condition. […]

[2] = system: fetal hemoglobin gene expression (HBG1) in human erythroid progenitor cells; assay: Humanized mouse model: fetal hemoglobin mRNA (HBG1, HBB) in bone marrow by Nanostring; details: for HBG1 expression compared to vehicle (HBG1 alone or HBG1 to total beta hemoglobin mRNA): FIGS. 11A-11C, various doses and treatment regimes
From the text: as §1, §2, §3, §4, §5, §6

[3] = system: HbF in GlyA+ human erythroid precursor cells; assay: Humanized mouse model: F-cells (GlyA+ cells with detectable HbF) by flow cytometry; details: FIG. 10A, all treatment groups
Experimental: FIG. 5 is FACS results showing the percentage of GlyA+ cells which also have detectable HbF protein levels in them (called F-cells).
as §3
as §4, with “Cells and buffer were centrifuged at 300G for 8 minutes, and the supernatants were aspirated.” left out, “The cell concentration was adjusted to 3×10^6 cells/ml. For each mouse, 300 thousand cells in 0.1 ml were injected into the tail vein with a 25-gauge needle.” left out
Compound I-73 was dissolved in a 5% Cremophor RH40, 20% hydroxylpropyl-β-cyclodextrin solution. […] Mice were monitored daily for body weight and condition. […]
After 21 days of dosing, all mice were euthanized and prepared for bone marrow collection. […] Extracted cells were counted and aliquoted to prepare for analysis. […]

[4] = humanized mouse model, human erythroid progenitor cells, dose not given at this place

CCN1C(=O)[C@@H](NC(=O)c2cccc(C(F)(F)F)c2)[C@@H](c2ccc(F)cc2)c2c([C@@H](C)NC#N)nn(-c3ccccc3)c21 [Compound I-73, N-((4S,5S)-3-((R)-1-cyanamidoethyl)-7-ethyl-4-(4-fluorophenyl)-6-oxo-1-phenyl-4,5,6,7-tetrahydro-1H-pyrazolo[3,4-b]pyridin-5-yl)-3-(trifluoromethyl)benzamide]
HbF protein levels in bone marrow (AlphaLISA) compared to vehicle-treated mice ([1]; 25 and 100 mg/kg bid, oral gavage, three weeks, normalized to % GlyA+ cells (FIG. 1A)): significantly increases | HbF protein levels (AlphaLISA) normalized for % GlyA+ cells [1]: increased HbF protein levels | difference in HbF protein levels between the 25 and the 100 mg/kg doses ([1]; bid, oral gavage, three weeks): no significant difference | induction of fetal hemoglobin protein (HbF) [1, 4]: an induction of both HBG1 mRNA and HbF protein was observed | HBG1 mRNA transcript levels (Nanostring) ([2]; 25 and 100 mg/kg bid, oral gavage, three weeks (FIG. 1B)): enhanced transcript levels | ratios of HBG1 to HBB mRNA compared with hydroxyurea (50 mg/kg bid) ([2]; 25 and 100 mg/kg bid, oral gavage, three weeks (FIG. 1C)): significantly greater ratios | HBG1 expression compared to vehicle (HBG1 alone or HBG1 to total beta hemoglobin mRNA) [2]: increased HBG1 expression compared to vehicle | induction of fetal hemoglobin mRNA (HBG1) [2, 4]: an induction of both HBG1 mRNA and HbF protein was observed | ratio of fetal HBG1 hemoglobin mRNA to adult hemoglobin mRNA (HBB), compared with HU ([2]; humanized mouse model, dose not given at this place): significantly greater than HU standard of care | percentage of HbF expression in GlyA+ cells (F-cell analysis) [3]: increased percentage of HbF expression in GlyA+ cells

CCN1C(=O)[C@@H](NC(=O)c2cccc(C(F)(F)F)c2)[C@@H](C2CC2)c2c(C(=O)N3[C@H](C#N)C[C@H]4C[C@H]43)nn(C3CCOCC3)c21 [Compound I-256, N-((4S,5S)-3-((1R,3S,5R)-3-cyano-2-azabicyclo[3.1.0]hexane-2-carbonyl)-4-cyclopropyl-7-ethyl-6-oxo-1-(tetrahydro-2H-pyran-4-yl)-4,5,6,7-tetrahydro-1H-pyrazolo[3,4-b]pyridin-5-yl)-3-(trifluoromethyl)benzamide]
HbF protein levels (AlphaLISA) normalized for % GlyA+ cells [1]: increased HbF protein levels | HBG1 expression compared to vehicle (HBG1 alone or HBG1 to total beta hemoglobin mRNA) [2]: increased HBG1 expression compared to vehicle | percentage of HbF expression in GlyA+ cells (F-cell analysis) [3]: increased percentage of HbF expression in GlyA+ cells
